According to ChEMBL document CHEMBL1150080, “Asimilobin and cis- and trans-murisolinones, novel bioactive Annonaceous acetogenins from the seeds of Asimina triloba” (J Nat Prod, 1995):
≈ marks a conversion by molar mass, not a printed value.

What was measured:
MIA PaCa-2 = test: Cytotoxicity against human MIAPaCa2 cells after 7 days by MTT assay; type: functional; details: MIA PaCa-2, 168 h, read-out: ED50 (the source's name)
HT-29 = test: Cytotoxicity against human HT-29 cells after 7 days by MTT assay; type: functional; details: HT-29, 168 h, read-out: ED50 (the source's name)
PC-3 = test: Cytotoxicity against human PC3 cells after 7 days by MTT assay; type: functional; details: PC-3, 168 h, read-out: ED50 (the source's name)
A549 = test: Cytotoxicity against human A549 cells after 7 days by MTT assay; type: functional; details: A549, 168 h, read-out: ED50 (the source's name)
[1] = Toxicity to brine shrimp larvae; type: organism-based; details: artemia, in vivo
A498 = test: Cytotoxicity against human A498 cells after 7 days by MTT assay; type: functional; details: A498, 168 h, read-out: ED50 (the source's name)
MCF7 = test: Cytotoxicity against human MCF7 cells after 7 days by MTT assay; type: functional; details: MCF7, 168 h, read-out: ED50 (the source's name)

Row | SMILES | EC50 (MIA PaCa-2) [µg/mL] | EC50 (HT-29) [µg/mL] | EC50 (PC-3) [µg/mL] | EC50 (A549) [µg/mL] | LC50 [1] [µg/mL] | EC50 (A498) [µg/mL] | EC50 (MCF7) [µg/mL]
1 | CCCCCCCCCCCCCC[C@H](O)[C@@H]1CC[C@@H]([C@@H]2CC[C@@H](CCCCC[C@@H](O)CC3=C[C@H](C)OC3=O)O2)O1 [ASIMILOBIN] | 0.104 (≈ 0.18 µM) | 0.063 (≈ 0.109 µM) | 1.47 (≈ 2.54 µM) | 0.0301 (≈ 0.052 µM) | 1.06 (≈ 1.83 µM) | 0.0226 (≈ 0.039 µM) | 2.14 (≈ 3.7 µM)
2 | CCCCCCCCCCC[C@@H](O)[C@H]1CC[C@H]([C@H](O)CCCCCCCCCC[C@@H]2C[C@H](CC(C)=O)C(=O)O2)O1 | 0.107 (≈ 0.189 µM) | 0.754 (≈ 1.33 µM) | 1.48 (≈ 2.61 µM) | 0.148 (≈ 0.261 µM) | 12.3 (≈ 21.7 µM) | 3.44 (≈ 6.07 µM) | 0.0793 (≈ 0.14 µM)
3 | COc1cccc2c1C(=O)c1c(O)c3c(c(O)c1C2=O)C[C@@](O)(C(=O)CO)C[C@@H]3O[C@H]1C[C@H](N)[C@H](O)[C@H](C)O1 [DOXORUBICIN] | 0.00132 (≈ 0.00243 µM) | 0.0262 (≈ 0.0482 µM) | 0.0196 (≈ 0.0361 µM) | 0.00101 (≈ 0.00186 µM) | – | – | 0.0103 (≈ 0.019 µM)
4 | CCCCCCCCCCC[C@@H](O)[C@H]1CC[C@H]([C@H](O)CCCCCCCCCC[C@H]2C[C@H](CC(C)=O)C(=O)O2)O1 | 0.0059 (≈ 0.0104 µM) | 1.16 (≈ 2.05 µM) | 0.214 (≈ 0.378 µM) | 0.0276 (≈ 0.0487 µM) | 18.2 (≈ 32.1 µM) | 1.23 (≈ 2.17 µM) | 0.0296 (≈ 0.0522 µM)
